Results from ChEMBL document CHEMBL4400569, “The discovery of quinoline-3-carboxamides as hematopoietic prostaglandin D synthase (H-PGDS) inhibitors” (Bioorg Med Chem, 2019).
In brackets after ≈: the same amount, converted by molar mass.

Experiments:
[1] = Stability in human whole blood assessed as amidase-mediated carboxylic acid formation by measuring parent compound remaining measured after 1 hr; format: ADME, tissue-based
[2] = Dose normalized AUC in po dosed mouse; format: ADME, organism-based; conditions: in vivo
[3] = Apparent permeability of the compound at 2.5 uL at pH 7.4 incubated for 3 hrs under shaking condition by PAMPA; format: ADME
[4] = Terminal half life in mouse; format: ADME, organism-based; conditions: in vivo
[5] = organism: Mus musculus; test: animal or person; conditions: C57BL/6J, po
[6] = Half life in mouse liver microsomes at 0.5 mM preincubated for 5 mins followed by NADP addition and measured after LC-MS/MS analysis; format: ADME, Microsome
[7] = Solubility of the compound in FaSSIF by HPLC analysis; format: physicochemical
[8] = Oral bioavailability in mouse; format: ADME, organism-based; conditions: in vivo
[9] = Volume of distribution at steady state in mouse; format: ADME, organism-based; conditions: in vivo, read-out: Vdss
[10] = Clearance in iv dosed mouse; format: ADME, organism-based; conditions: in vivo

Work on `COc1ccc2cc(C(=O)N[C@H]3CCNC3=O)cnc2c1` yielded a Stability [1] of 100%.
Compound `CC(C)(O)[C@H]1CC[C@H](NC(=O)c2cnc3cc(OC(F)F)ccc3c2)CC1` has an AUC/dose [2] of 1800 ng·h/mL per mg/kg, a Papp at 3 h [3] of 24 ×10⁻⁶ cm/s and a beta t1/2 [4] of 3.8 h. It also gave an ED50 [5] of 0.032 mg/kg and a half-life [6] greater than 3 h.
With `COc1ccc2cc(C(=O)N[C@H]3CC[C@H](C(C)(C)O)CC3)cnc2c1` the half-life [6] was 0.633 h.
For `COc1ccc2cc(C(=O)NC(C)(C)C)cnc2c1`, the Stability [1] was 1%.
With `CC(C)(O)[C@H]1CC[C@H](NC(=O)c2cnc3cc(OC(F)(F)F)ccc3c2)CC1` the AUC/dose [2] was 1900 ng·h/mL per mg/kg, the solubility [7] was 16 µg/mL (≈ 40.4 µM) and the Papp at 3 h [3] was 47 ×10⁻⁶ cm/s. The half-life [4] was 7.9 h, the bioavailability [8] was 46% and the Vd [9] was 2.5 L/kg. For the same compound, the half-life [6] was greater than 3 h and the clearance [10] was 3.8 mL/min/kg.
Compound `COc1ccc2cc(C(=O)Nc3cc[nH]n3)cnc2c1` has a Stability [1] of 93%.
For `COc1ccc2cc(C(=O)Nc3cn[nH]c3)cnc2c1`, the Stability [1] was 63%.
